Our source for the outcome, IC50 and inhibition values is PubChem BioAssay AID624129 (Sanford-Burnham Center for Chemical Genomics, 2012).

For this assay, the target named is C-X-C chemokine receptor type 6 (Homo sapiens) (UniProt O00574). The experiment in a line: potency against CXCR6 with APJ panel – cell-based, beta-arrestin, DiscoveRx, uHTS hits, dose response (AID 624129). Particulars: CXCR6 beta-arrestin (DiscoveRx) antagonist cell assay; for outcome: CXCR6, dose range 1; for inhibition: CXCR6, run 2, dose range 1, at 79 µM (top of the series).

[1] abbreviates: CXCR6, dose range 1, mean IC50 across replicates.

The source made the active and inactive calls. The rule behind the calls is not given here.

C-X-C chemokine receptor type 6 (Homo sapiens), sequence (O00574 whole entry, looked up): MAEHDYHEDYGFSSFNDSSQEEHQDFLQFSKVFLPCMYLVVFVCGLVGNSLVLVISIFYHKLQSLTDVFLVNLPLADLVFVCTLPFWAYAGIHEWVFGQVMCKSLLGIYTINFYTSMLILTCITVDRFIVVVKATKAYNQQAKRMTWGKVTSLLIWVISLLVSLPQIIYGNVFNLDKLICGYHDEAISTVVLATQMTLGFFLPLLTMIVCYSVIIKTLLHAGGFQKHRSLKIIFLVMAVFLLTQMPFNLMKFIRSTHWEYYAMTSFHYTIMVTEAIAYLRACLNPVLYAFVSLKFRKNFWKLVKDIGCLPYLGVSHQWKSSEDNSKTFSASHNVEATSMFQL

Consider `Cc1cccc(NC(=S)NNc2ncc(C(F)(F)F)cc2Cl)c1`, for which the result was inactive and the inhibition was found to be 109%. Further, the IC50 under setting [1] was 20.5 µM. Besides, under “CXCR6, run 1, dose range 2”, the IC50 turned out to be 26.4 µM. The IC50 (CXCR6, run 2, dose range 2) was determined as 14.7 µM.
The corresponding values for `CCc1nnc(NS(=O)(=O)c2ccc(Nc3ccc([N+](=O)[O-])c4nonc34)cc2)s1` are “inactive”, 92.2%, 34.1 µM, 29.8 µM and 38.4 µM.
Consider `Cn1cnc([N+](=O)[O-])c1S(=O)(=O)c1cccc(Cl)c1`, for which the outcome was inactive and the inhibition was determined as 112%. The compound also yielded an IC50 under setting [1] of 12.1 µM. Besides, the 50% inhibitory concentration (IC50) (CXCR6, run 1, dose range 2) was found to be 12.4 µM. Also, under “CXCR6, run 2, dose range 2”, the IC50 was found to be 11.9 µM.
`COc1ccc(-c2nn(C)c(=O)c3ccccc23)cc1NC(=O)Cn1nc(C)c2ccccc2c1=O`: the outcome was inactive and the inhibition was 72.1%. The same compound came in with an IC50 under setting [1] of 34.5 µM. Besides, the IC50 (CXCR6, run 1, dose range 2) was 21.8 µM. Besides, the IC50 (CXCR6, run 2, dose range 2) came to 47.2 µM.
As for `Cc1ccc(NC(=O)c2nc(S(=O)(=O)Cc3ccccc3)ncc2Cl)cc1`, the outcome was inactive and the inhibition was 111%. The same compound came in with an IC50 under setting [1] of 15.3 µM. The IC50 (CXCR6, run 1, dose range 2) is 15.2 µM. Moreover, for the setting “CXCR6, run 2, dose range 2”, the IC50 is 15.5 µM.
With `Cc1cccc(NC(=S)N/N=C/c2ccc([N+](=O)[O-])s2)c1`, the outcome was inactive and the inhibition came out at 87.7%. The compound also displayed an IC50 under setting [1] of 12.4 µM. The compound further yielded an IC50 (CXCR6, run 1, dose range 2) of 9.56 µM. The compound also showed an IC50 (CXCR6, run 2, dose range 2) of 15.2 µM.
With `CCc1nc2c(OCCC3CCCCC3)cccn2c1N(C)C(=O)c1ccc(C)cc1`, the result was inactive and the inhibition came to 111%. The same compound had an IC50 under setting [1] of 18.8 µM. The compound further yielded an IC50 (CXCR6, run 1, dose range 2) of 17.9 µM. Moreover, the IC50 (CXCR6, run 2, dose range 2) amounted to 19.6 µM.
`CC(=O)N1N=C(c2cccs2)CC1c1cccc([N+](=O)[O-])c1` (stereo not given): the result was inactive and the inhibition is 73.7%. Under setting [1], this compound gave an IC50 of 23.2 µM. In addition, the IC50 (CXCR6, run 1, dose range 2) worked out at 20.8 µM. The same compound had an IC50 (CXCR6, run 2, dose range 2) of 25.5 µM.
For `N#C/C(=C/c1ccc(-c2ccc([N+](=O)[O-])cc2)o1)C(=O)Nc1nc(-c2cccs2)cs1`, the outcome was inactive and the inhibition amounted to 90.2%. Moreover, under setting [1], the IC50 was determined as 38.1 µM. For the same compound, the IC50 (CXCR6, run 1, dose range 2) was 44.7 µM. This compound also showed an IC50 (CXCR6, run 2, dose range 2) of 31.5 µM.
Consider `O=C(Nc1ccccc1)c1ccc(Nc2c([N+](=O)[O-])cc([N+](=O)[O-])c3ccccc23)cc1`, for which the result was inactive and the inhibition was 98.6%. For the same compound, the IC50 under setting [1] was 44.4 µM. In addition, the IC50 (CXCR6, run 1, dose range 2) came to 65.1 µM. Also, the IC50 (CXCR6, run 2, dose range 2) was determined as 23.6 µM.
The corresponding values for `O=C(NCc1cccnc1)/C(=C\c1ccc(-c2cccc(Cl)c2)o1)S(=O)(=O)c1ccccc1` are “inactive”, 88.9%, 13.8 µM, 11.9 µM and 15.7 µM.
Take `O=C(Nc1ccccc1)c1nnsc1S(=O)c1ccc(Cl)cc1` (stereo not given): the result was inactive and the inhibition amounted to 111%. The compound further showed an IC50 under setting [1] of 11.5 µM. The IC50 (CXCR6, run 1, dose range 2) was 11.9 µM. The half-inhibitory concentration (IC50) (CXCR6, run 2, dose range 2) turned out to be 11.2 µM.
As for `N=C1SCC(=O)N1c1ncc(Cc2ccccc2Cl)s1`, the outcome was inactive and the inhibition amounted to 78.1%. The compound further came in with an IC50 under setting [1] of 12 µM. The IC50 (CXCR6, run 1, dose range 2) was 10.5 µM. Besides, the IC50 (CXCR6, run 2, dose range 2) is 13.5 µM.
For `C=C1CCN([C@@H](Cc2ccccc2)C(=O)NCCC(C)C)S(=O)(=O)c2ccccc21`, the outcome was inactive and the inhibition is 69.3%. Moreover, under setting [1], the IC50 came to 15.2 µM. This compound also gave an IC50 (CXCR6, run 1, dose range 2) of 17.1 µM. For the same compound, the IC50 (CXCR6, run 2, dose range 2) was found to be 13.3 µM.
Regarding `CCCNC(=O)c1nnsc1S(=O)(=O)c1ccc(Cl)cc1`, the outcome was inactive and the inhibition came out at 112%. Besides, the IC50 under setting [1] came out at 14.1 µM. Moreover, for the setting “CXCR6, run 1, dose range 2”, the IC50 was 13.8 µM. This compound yielded an IC50 (CXCR6, run 2, dose range 2) of 14.3 µM.
